These results are taken from patent publication US9371333B2, “Chromene derivatives and their analoga as Wnt pathway antagonists” (Deutsches Krebsforschungszentrum, priority 2010, dated 2016).

For orientation: IC50 means the concentration at which inhibition is half-maximal. The low end stands for inhibition by little substance, the high end for a need for much substance.

Common to all, as to type: cell-based
The subject of one assay is Hek293T. The assay is described as follows: Cytotoxicity in Hek293T (CellTiterGlo). The conditions noted are these: Homo sapiens, HEK-293T, 24 h after compound addition. On the procedure: (§1) For examination of cytotoxicity in these cancer cell lines the commercial available CellTiterGlo® Reagent (Promega, USA) was used according to the manufactor.
(§2) Compounds were applied to Hek293T (denoted (a)) or HepG2 (denoted (b)), cultured in Dulbecco's Modified Eagles Medium, supplemented with 10% fetal calf serum and 1% penicillin/streptomycin. Cells were grown in T75 flasks at 37° C., 5% CO2 and trypsinized when 60-80% confluent by adding 2 ml of 0.25% Trypsin-EDTA solution. Cells were then re-suspended into culture medium yielding approx. 4000 cells (a) or 4500 cells (b), suspended in 30 microl medium. 48 h after cell seeding, compounds were added to yield the desired final concentrations. 24 h after compound addition cytotoxicity was evaluated. For this purpose the media was removed and CellTiterGlo® was added according to the manufactors manual. In this assay the luciferase emission readout is directly correlated with the cellular amount of ATP, low luciferase emission thus is reflecting cytotoxicity of a compound.

A further assay relates to HepG2. The assay is described as follows: Cytotoxicity in HepG2 (CellTiterGlo). To be noted: Homo sapiens, 24 h after compound addition. On the procedure:
as §1, §2

The subject of assay [1] is human fibroblasts (HS-68). The assay is described as follows: Cell line specific cytotoxicity, normal cells HS68 (nuclei count). The conditions noted are these: Hoechst labeled nuclei count, at least 72 hr. On the procedure:
For examination of cell line-specific cytotoxicity, compounds were applied to human colorectal cancer cells (HCT116, denoted (1); SW480, denoted (2); Dld-1, denoted (3)) and human fibroblasts (HS-68, denoted (4)), cultured in Mc Coy's ((1)) and Dulbecco's Modified Eagles Medium ((2)-(4)), supplemented with 10% ((1)-(3)) and 20% ((4)) fetal calf serum and 1% penicillin/streptomycin. Cells were grown in T75 flasks at 37° C., 5% CO2 and trypsinized when 60-80% confluent by adding 2 ml of 0.25% Trypsin-EDTA (ethylenediaminetetraacetic acid) solution. Cells were then re-suspended into culture medium yielding approx. 750 cells, suspended in 45 microl medium, were plated into each well of a black 384-well plate for fluorescence imaging experiments. […] Compound incubation was terminated by (a) fixation and (b) permeabilisation of cells, followed by (c) fluorescence labeling of cell nuclei for cytometric quantification or by immunocytochemistry for microscopic evaluation of cell morphology. […]
Cell line-specific cytotoxicity was quantified by counting the number of Hoechst labeled nuclei per well of a 384-well plate using a plate cytometer. Data obtained with the cytometer was analysed using standard data analysis software.
Identified hits were further evaluated by visual inspection of fluorescence micrographs obtained from imaging using a conventional fluorescence microscope.

Molecules are shown by their SMILES.

`COc1cc(C2C(C#N)=C(N)Oc3c2ccc2ccc(N)nc32)cc(Br)c1OC` (racemic) [(20), 3,6-Diamino-1-(3-bromo-4,5-dimethoxy-phenyl)-1H-4-oxa-5-aza-phenanthrene-2-carbonitrile]: the values for the IC50 in the assay on Hek293T and in the assay with HepG2 were above 90 µM and 37 µM, respectively.
With `COc1cc(C2C(C#N)=C(N)Oc3c2ccc2ccccc32)cc(Br)c1OC` (stereo not drawn) [(1), 2-Amino-4-(3-bromo-4,5-dimethoxy-phenyl)-4H-benzo[h]chromene-3-carbonitrile], the IC50 in the assay with Hek293T and in the assay on HepG2 was above 90 µM in each case.
For the compound `C=CCOc1c(Br)cc(C2C(C(=O)OCC)=C(N)Oc3c2ccc2ccccc32)cc1OC` (stereo not drawn) [(4), 4-(4-Allyloxy-3-bromo-5-methoxy-phenyl)-2-amino-4H-benzo[h]chromene-3-carboxylic acid ethyl ester], the IC50 with Hek293T and in the assay on HepG2 was above 90 µM throughout.
Take `CCOC(=O)C1=C(N)Oc2c(ccc3ccccc23)C1c1cc(Br)c(OC)c(OC)c1` (stereo not drawn) [(6), 2-Amino-4-(3-bromo-4,5-dimethoxy-phenyl)-4H-benzo[h]chromene-3-carboxylic acid ethyl ester]: the IC50 with Hek293T and with HepG2 was above 90 µM throughout.
For the compound `N#CC1=C(N)Oc2c(ccc3ccccc23)C1c1cc(F)c(F)c(F)c1` (stereo not drawn) [(7), 2-Amino-4-(3,4,5-trifluoro-phenyl)-4H-benzo[h]chromene-3-carbonitrile], the half-maximal inhibitory concentration (IC50) with Hek293T and in the assay on HepG2 was above 90 µM in each case.
Turning to `COc1cc(C2C(C#N)=C(N)Oc3c2ccc2ccc(C)nc32)cc(Br)c1OC` (stereo not drawn) [(16), 3-Amino-1-(3-bromo-4,5-dimethoxy-phenyl)-6-methyl-1H-4-oxa-5-aza-phenanthrene-2-carbonitrile], the half-inhibitory concentration (IC50) in the assay on Hek293T and with HepG2 was above 90 µM each time.
`COc1cc(C2C(C#N)=C(N)Oc3c2c(O)nc2ccccc32)cc(Br)c1OC` (stereo not drawn) [(17), 2-Amino-4-(3-bromo-4,5-dimethoxy-phenyl)-5-hydroxy-4H-pyrano[3,2-c]quinoline-3-carbonitrile]: the 50% inhibitory concentration (IC50) (in the assay with Hek293T; in assay [1]; in the assay with HepG2) was above 90 µM each time.
For the compound `COc1cc(C2C(C#N)=C(N)Oc3c2ccc2ncccc32)cc(Br)c1OC` (stereo not drawn) [(18), 6-Amino-8-(3-bromo-4,5-dimethoxy-phenyl)-8H-5-oxa-1-aza-phenanthrene-7-carbonitrile], the IC50 in the assay with Hek293T and in the assay on HepG2 was above 90 µM throughout.
As to `COc1cc(C2C(C#N)=C(N)Oc3c2ccc2ccc(O)nc32)cc(Br)c1OC` (stereo not drawn) [(19), 3-Amino-1-(3-bromo-4,5-dimethoxy-phenyl)-6-hydroxy-1H-4-oxa-5-aza-phenanthrene-2-carbonitrile], the IC50 in the assay on Hek293T and in the assay with HepG2 was above 90 µM in each case.
`N#CC1=C(N)Oc2cc3ccccc3cc2C1c1cc(F)c(F)c(F)c1` (stereo not drawn) [(28), 2-amino-4-(3,4,5-trifluoro-phenyl)-4H-benzo[g]chromene-3-carbonitrile]: the concentration for half-maximal inhibition (IC50) with Hek293T was above 90 µM; with HepG2, 31.7 µM.
For `N#CC1=C(N)Oc2cc3ccccc3cc2C1c1cc(F)c(N2CCCCC2)c(F)c1` (stereo not drawn) [(29), 2-amino-4-(3,5-difluoro-4-piperidin-1-yl-phenyl)-4H-benzo[g]chromene-3-carbonitrile], the IC50 in the assay with Hek293T is above 90 µM; with HepG2, 42.5 µM.
For `COc1cc(C2C(C#N)=C(N)Oc3cc4ccccc4cc32)cc(Br)c1OC` (stereo not drawn) [(30), 2-Amino-4-(3-bromo-4,5-dimethoxy-phenyl)-4H-benzo[g]chromene-3-carbonitrile] the same measures were above 90 µM and above 90 µM.
For `COc1cc(C2C(C#N)=C(N(C)C)Oc3cc4ccccc4cc32)cc(Br)c1OC` (stereo not drawn) [(31), 2-Dimethylamino-4-(3-bromo-4,5-dimethoxy-phenyl)-4H-benzo[g]chromene-3-carbonitrile] the same measures were above 90 µM and above 90 µM.
In the case of `N#CC1=C(N)Oc2cc3c(cc2C1c1cc(F)c(F)c(F)c1)OCO3` (stereo not drawn) [(39), 6-Amino-8-(3,4,5-trifluoro-phenyl)-8H-[1,3]dioxolo[4,5-g]chromene-7-carbonitrile], the IC50 (in the assay on Hek293T; in assay [1]; in the assay with HepG2) was above 90 µM throughout.
In the case of `CCOC(=O)C1=C(N)Oc2cc3c(cc2C1c1cc(F)c(F)c(F)c1)OCO3` (stereo not drawn) [(40), 6-Amino-8-(3,4,5-trifluoro-phenyl)-8H-[1,3]dioxolo[4,5-g]chromene-7-carboxylic acid ethyl ester], the 50% inhibitory concentration (IC50) in the assay with Hek293T and with HepG2 was above 90 µM each time.
On to `C=CCOc1c(Br)cc(C2C(C#N)=C(N)Oc3cc4c(cc32)OCO4)cc1OC` (stereo not drawn) [(41), 8-(4-Allyloxy-3-bromo-5-methoxy-phenyl)-6-amino-8H-[1,3]dioxolo[4,5-g]chromene-7-carbonitrile], for which the IC50 with Hek293T and with HepG2 was above 90 µM in each case.
As for `C=CCOc1c(Br)cc(C2C(C(=O)OCC)=C(N)Oc3cc4c(cc32)OCO4)cc1OC` (stereo not drawn) [(42), 8-(4-Allyloxy-3-bromo-5-methoxy-phenyl)-6-amino-8H-[1,3]dioxolo[4,5-g]chromene-7-carboxylic acid ethyl ester], the IC50 in the assay with Hek293T and in the assay with HepG2 was above 90 µM throughout.
